Results published in patent publication US20220387635A1, “PET IMAGING OF CANCEROUS CELLS USING 18F-FLUOROACETATE” (priority 2019, published 2022).
Entries after “also recorded” stand apart in the source; their conditions may differ.

Assays:
[1] = test system: NALM-6 tumor within the central nervous system; experiment: Dynamic PET time-activity curve in brain and spinal cord; type: in vivo, mouse; conditions: 1-hour dynamic PET; NALM-6 tumor-bearing (LMD) vs normal mice
Source text: Time-activity curve of [^18F]-fluoroacetate biodistribution within the brain and spinal cord. A dynamic PET scan was used to determine the time-dependent distribution [^18F]-fluoroacetate within regions-of-interest (ROI) in the brains and spinal cords of normal (control) and NALM-6 tumor-bearing (LMD) mice.

[2] = test system: NALM-6 ALL cells; experiment: In vitro radiotracer uptake in NALM-6 cells; type: cell-based; conditions: for Uptake rate: normalized to [14C]-thymidine, Example 1; for Uptake rate (slope of linear trendline of cell:media ratio): uptake measured at 30, 60, 120 min, FIG. 1 legend
Experimental: Cell uptake studies were performed in the presence of [^3H]-flouroacetate, [^3H]-glucose, and [^14C]-thymidine. Uptake levels were measure at 30, 60, and 120-minute intervals and expressed as a ratio of cellular retention versus concentration in surrounding media (cell:media ratio). Uptake rates were determined as a function of the slope of linear trendline. [^3H]-flouroacetate uptake rates were higher (dotted line; 0.053 min^−1) compared to glucose (dashed line; 0.028 min-1) and thymidine (solid line; 0.024 min^−1).
In vitro uptake of [^3H]-FA, [^3H]-glucose, and [^14C]-thymidine. Radiotracer uptake studies were performed as described previously (Najjar et al., 2009). Briefly, 10^7 NALM-6 were suspended in 6 mL of RPMI medium containing 10% FBS, [^14C]thymidine (0.01 μCi/mL; Moravek, Brea, Calif., USA) and [^3H]-fluoroacetate (0.1 μCi/mL; Moravek) or [^14C]thymidine (0.01 μCi/mL and [^3H]-glucose (2.5 μCi/mL). At time intervals of 30, 60, and 120 minutes, 1 mL aliquots were removed and the cells were pelleted in pre-weighed vials. A […], aliquot of the supernatant was transferred to a pre-weighed scintillation tube. The pellets were weighed following removal of the remainder of the media and thoroughly resuspended in 0.1 mL of Soluene-350 (Perkin-Elmer, Boston, Mass.). Radioactive beta emissions of the media and cell pellets were measured within pre-calibrated energy ranges using a Packard Tri-Carb 3100TR scintillation counter to quantitate [^3H]-FA, [^3H]-glucose, and [^14C]-thymidine uptake. The activity accumulation ratios of the cell pellets to the media ([disintegrations per minute/g cells]/[disintegrations per minute/g media]) were then determined and plotted.
Accordingly, in vitro radiotracer uptake studies were performed to determine the metabolic preference of NALM-6 cells for uptake and retention of fluoroacetate and glucose. The accumulation [^3H]-fluoroacetate and [^3H]-glucose was measured and compared separate experiments (FIG. 1). Uptake levels were normalized to [^14C]-thymidine levels for direct comparison. […] The rates of [^3H]-glucose and [^14C]-thymidine were more closely matched at 0.028 and 0.024 min^−1, respectively.

Structure (SMILES)	Time-dependent distribution in brain and spinal cord ROI (time-activity curve) [1]	Uptake rate [2] [min⁻¹]	Uptake rate (slope of linear trendline of cell:media ratio) [2] [min⁻¹]	Uptake rate relative to [3H]-glucose [2]
O=C(O)C[18F] [[^18F]-fluoroacetate, ^18F-fluoroacetate]	preferential accumulation of the radiotracer in regions of NALM-6 tumor within the central nervous system; also recorded: higher baseline levels	–	–	–
Cc1cn([C@H]2C[C@H](O)[C@@H](CO)O2)c(=O)[nH]c1=O [[^14C]-thymidine]	–	0.024	0.024	–
[3H]C(F)C(=O)O (centres unmarked) [[^3H]-fluoroacetate]	–	0.056	0.053	nearly twice the rate
OC[C@H]1OC(O)[C@H](O)[C@@H](O)[C@@H]1O (some centres unmarked) [[^3H]-glucose]	–	0.028	0.028	–
